The record followed here is patent US20130236904A1, “METHOD FOR SCREENING FOR MATERIALS FOR PROMOTING THE DIFFERENTIATION OF SKIN CELLS” (AMOREPACIFIC CORPORATION, priority 2010, published 2013).

This experiment deals with DUOX 1 gene. The experiment in a line: DUOX 1 gene expression by calcium concentration (Q-RT-PCR). The experiment is classed as cell-based. To be noted: normal human epidermal keratinocytes, 1.2 mM calcium (high calcium group) vs 120 μM (control), 24 hours; FIG. 1. Here is the method:
Normal human epidermal keratinocytes (human epidermal neonatal keratinocyte cells) are purchased from Lonza, Inc. (Walkersville, Md., USA) and subcultured, and then incubated in a CO2 incubator under a condition of 37° C. and 5% CO2. Cell culture is prepared according to the instructions of Lonza, Inc. (Walkersville, Md., USA). KGM-2 bullet kit [bovine pituitary extract (BPE), 2 ml), human epidermal growth factor (hEGF, 0.5 ml), insulin (0.5 ml), hydrocortisone (0.5 ml), transferrin (0.5 ml), epinephrine (0.5 ml), gentamycin sulfate+amphofericin B (GA-1000, 0.5 ml)] are added to KBM-2 (Clonetics CC-3103) medium (500 ml).
120 μM and 1.2 mM Calcium are added to the culture medium of human epidermal keratinocytes, respectively, and the cells are incubated for 24 hours. Each of them is used as a low calcium group (control group) and a high calcium group (test group). […] The isolated RNA is purified once more using an RNA kit (Qiagen RNeasy kit, Qiagen, Valencia, Calif.) and RNA quality is verified using Agilent 2100 BioAnalyzer (Agilent Technologies, Santa Clara, Calif., USA). cDNA is synthesized from the isolated RNA using a reverse transcription kit (Superscript Reverse Transcriptase (RT) II kit, Invitrogen, Carlsbad, Calif.), and expression of various NOX genes is quantitatively analyzed by means of real time-reverse transcription polymerase chain reaction (Q-RT-PCR). […]

For `[Ca+2]` [calcium, Calcium], the “expression of DUOX 1 gene” value is recorded as “more remarkably increased”.
